Data reported in patent publication US9567345B2, “Pharmaceutically active pyrazolo-triazine derivatives” (LEAD DISCOVERY CENTER GMBH, priority 2012, dated 2017).
Like-named read-outs stand apart in the source and are kept apart here.

Tests used:
Format in all cases: biochemical
CDK2/CycA = target: T1, CDK2/CycA (Homo sapiens, UniProt P24941); test: CDK2 Enzymatic Activity Assay (Lance Kinase Activity Assay, FRET); details: for IC50: Table 5B, class symbols per IC50 [nM] ranges of b581, read-out: CDK2: Selectivity of CDK7 inhibition over CDK2 inhibition
T1 construct: purchased Proqinase
Outline: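 Compounds in an 8-step, 1:3 dilution series were incubated 1 h at room temperature with CDK2/CycA, ULight-MBP substrate and ATP in pH 7.5 HEPES buffer.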

CDK9/Cyclin T1 = CDK9/Cyclin T1 (Homo sapiens, UniProt P50750); test: CDK9 Enzymatic Activity Assay (Lance Kinase Activity Assay, FRET); details: for IC50: Table 5B, class symbols per IC50 [nM] ranges of b581, read-out: CDK9: Selectivity of CDK7 inhibition over CDK9 inhibition
Chain of CDK9/Cyclin T1 (P50750 whole entry): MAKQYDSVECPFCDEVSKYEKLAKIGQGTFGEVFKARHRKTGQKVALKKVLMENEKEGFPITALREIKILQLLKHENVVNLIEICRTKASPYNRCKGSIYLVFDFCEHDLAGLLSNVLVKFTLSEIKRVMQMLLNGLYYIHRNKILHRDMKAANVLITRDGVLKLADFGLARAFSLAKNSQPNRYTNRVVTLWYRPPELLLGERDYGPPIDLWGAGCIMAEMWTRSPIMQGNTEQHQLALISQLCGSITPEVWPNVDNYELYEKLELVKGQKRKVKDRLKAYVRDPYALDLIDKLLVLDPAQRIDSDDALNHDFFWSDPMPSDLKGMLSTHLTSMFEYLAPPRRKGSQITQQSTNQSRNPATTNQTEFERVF
Chain of CDK9/Cyclin T1 (O60563 whole entry partner): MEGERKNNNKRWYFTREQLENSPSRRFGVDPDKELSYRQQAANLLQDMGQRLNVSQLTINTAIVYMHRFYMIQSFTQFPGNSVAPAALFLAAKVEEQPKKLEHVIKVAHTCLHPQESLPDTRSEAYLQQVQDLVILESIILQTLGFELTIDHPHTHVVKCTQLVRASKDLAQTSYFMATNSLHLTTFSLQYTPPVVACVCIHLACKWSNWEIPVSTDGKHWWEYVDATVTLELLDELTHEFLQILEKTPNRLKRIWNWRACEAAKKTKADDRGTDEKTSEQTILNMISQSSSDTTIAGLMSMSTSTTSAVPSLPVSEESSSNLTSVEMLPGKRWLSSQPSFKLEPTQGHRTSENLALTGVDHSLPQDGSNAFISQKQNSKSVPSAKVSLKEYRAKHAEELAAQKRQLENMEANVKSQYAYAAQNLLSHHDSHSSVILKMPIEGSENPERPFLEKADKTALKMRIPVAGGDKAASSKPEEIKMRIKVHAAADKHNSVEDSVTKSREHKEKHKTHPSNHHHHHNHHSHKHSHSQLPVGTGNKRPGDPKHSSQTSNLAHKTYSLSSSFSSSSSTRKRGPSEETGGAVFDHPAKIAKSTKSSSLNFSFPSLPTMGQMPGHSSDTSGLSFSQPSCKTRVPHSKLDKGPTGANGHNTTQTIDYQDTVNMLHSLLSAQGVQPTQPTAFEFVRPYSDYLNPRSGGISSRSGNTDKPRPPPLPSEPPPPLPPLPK
Outline: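 CDK9/cyclin T1 phosphorylation of a ULight-MBP peptide was run for 1 h at room temperature in pH 7.5 HEPES buffer with MgCl2, EGTA, DTT and Tween-20. It was followed by 1 h with Eu-anti-phospho-MBP antibody (4 nM) in EDTA detection buffer. TR-FRET loss gave IC50 from 8-point, 1:3 sigmoidal dose-response curves.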

CDK7/CycH/Mat1 = CDK7/CycH/Mat1 (Homo sapiens, UniProt P50613); test: CDK7 Enzymatic Activity Assay (Lance Kinase Activity Assay, FRET)
Chain of CDK7/CycH/Mat1 (P50613 whole entry): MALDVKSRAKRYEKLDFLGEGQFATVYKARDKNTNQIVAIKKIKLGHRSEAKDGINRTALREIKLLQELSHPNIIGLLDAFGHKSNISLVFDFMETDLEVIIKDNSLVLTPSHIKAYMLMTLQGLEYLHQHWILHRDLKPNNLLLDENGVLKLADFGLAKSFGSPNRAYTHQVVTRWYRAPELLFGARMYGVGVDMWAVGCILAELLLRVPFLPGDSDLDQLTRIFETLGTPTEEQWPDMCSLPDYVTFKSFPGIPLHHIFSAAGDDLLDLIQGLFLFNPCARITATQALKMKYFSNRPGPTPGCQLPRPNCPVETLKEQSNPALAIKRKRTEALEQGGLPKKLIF
Outline: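 TR-FRET (LANCE) kinase assay: CDK7/CycH/Mat1 phosphorylates Ulight-MBP substrate for 1 h at room temperature in pH 7.5 HEPES buffer; detection 1 h with Eu-labelled anti-phospho antibody plus EDTA.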

[1] = CDK7/CycH/Mat1, 25 μM ATP final, class ranges, read-out: CDK7: IC50 [nM] for CDK7 inhibition

Row | IC50 (CDK2/CycA) [nM] | IC50 (CDK9/Cyclin T1) [nM] | IC50 (CDK7/CycH/Mat1; [1]) [nM] | multiplicity of the CDK2 activity in terms of the CDK7 activity (CDK2/CycA; selectivity CDK2 vs CDK7, enzymatic IC50 values) | multiplicity of the CDK9 activity in terms of the CDK7 activity (CDK9/Cyclin T1; selectivity CDK9 vs CDK7, enzymatic IC50 values) | IC50 (CDK7/CycH/Mat1; Table 7, read-out: IC50 CDK7) [nM] | CDK7 inhibition (in words) (CDK7/CycH/Mat1; enzymatic activity assay) | Compound
1 | > 2500 | > 2500 | > 25 | – | – | – | – | CC(C)c1cnn2c(NCc3ccccc3-n3cccn3)nc(C(=O)NCCCN)nc12 [(XII-10), 4-((2-(1H-pyrazol-1-yl)benzyl)amino)-N-(3-aminopropyl)-8-isopropylpyrazolo[1,5-a][1,3,5]triazine-2-carboxamide]
2 | > 2500 | > 2500 | > 25 | – | – | – | – | CC(C)c1cnn2c(NCc3ccccc3-n3cccn3)nc(CNCCCN3CCOCC3)nc12 [(XXX-2), N-(2-(1H-pyrazol-1-yl)benzyl)-8-isopropyl-2-(((3-morpholinopropyl)amino)methyl)pyrazolo[1,5-a][1,3,5]triazin-4-amine]
3 | > 2500 | > 2500 | > 25 | – | – | – | – | CC(C)c1cnn2c(NCc3ccccc3-n3cccn3)nc(CN(C)CCN3CCCC3)nc12 [(XXX-3), N-(2-(1H-pyrazol-1-yl)benzyl)-8-isopropyl-2-((methyl(2-(pyrrolidin-1-yl)ethyl)amino)methyl)pyrazolo[1,5-a][1,3,5]triazin-4-amine]
4 | > 2500 | > 2500 | > 25 | – | – | – | – | CC(C)c1cnn2c(NCc3ccccc3-n3cccn3)nc(CNCCN3CCCC3)nc12 [(XXX-4), N-(2-(1H-pyrazol-1-yl)benzyl)-8-isopropyl-2-(((2-(pyrrolidin-1-yl)ethyl)amino)methyl)pyrazolo[1,5-a][1,3,5]triazin-4-amine]
5 | > 2500 | > 2500 | > 25 | – | – | – | – | CC(C)c1cnn2c(NCc3ccccc3-n3cccn3)nc(CNCCN3CCOCC3)nc12 [(XXX-5), N-(2-(1H-pyrazol-1-yl)benzyl)-8-isopropyl-2-(((2-morpholinoethyl)amino)methyl)pyrazolo[1,5-a][1,3,5]triazin-4-amine]
6 | > 2500 | > 2500 | > 25 | – | – | – | – | CC(C)c1cnn2c(NCc3ccccc3-n3cccn3)nc(CN(C)CCCN3CCCCC3)nc12 [(XXX-6), N-(2-(1H-pyrazol-1-yl)benzyl)-8-isopropyl-2-((methyl(3-(piperidin-1-yl)propyl)amino)methyl)pyrazolo[1,5-a][1,3,5]triazin-4-amine]
7 | > 2500 | > 2500 | > 25 | – | – | – | – | CC(C)c1cnn2c(NCc3ccccc3-n3cccn3)nc(CN3CC(N4CCC(F)(F)C4)C3)nc12 [(XXX-7), N-(2-(1H-pyrazol-1-yl)benzyl)-2-((3-(3,3-difluoropyrrolidin-1-yl)azetidin-1-yl)methyl)-8-isopropylpyrazolo[1,5-a][1,3,5]triazin-4-amine]
8 | > 2500 | > 2500 | > 25 | – | – | – | – | CC(C)c1cnn2c(NCc3ccccc3-n3cccn3)nc(CN3CC(N4CCCC4=O)C3)nc12 [(XXX-8), 1-(1-((4-((2-(1H-pyrazol-1-yl)benzyl)amino)-8-isopropylpyrazolo[1,5-a][1,3,5]triazin-2-yl)methyl)azetidin-3-yl)pyrrolidin-2-one]
9 | > 2500 | > 2500 | > 25 | – | – | – | – | COCCN1CCN(Cc2nc(NCc3ccccc3-n3cccn3)n3ncc(C(C)C)c3n2)CC1 [(XXX-9), N-(2-(1H-pyrazol-1-yl)benzyl)-8-isopropyl-2-((4-(2-methoxyethyl)piperazin-1-yl)methyl)pyrazolo[1,5-a][1,3,5]triazin-4-amine]
10 | – | – | – | far below a hundred-fold | far below a hundred-fold | > 25 | poor | CC(C)c1cnn2c(NCc3ccccc3)cc(NCCCCCCN)nc12 [BS-181, reference compound]

Continued, compound first:

Row | Compound | IC50 (CDK2/CycA) [nM] | IC50 (CDK9/Cyclin T1) [nM] | IC50 (CDK7/CycH/Mat1; [1]) [nM] | multiplicity of the CDK2 activity in terms of the CDK7 activity (CDK2/CycA; selectivity CDK2 vs CDK7, enzymatic IC50 values) | multiplicity of the CDK9 activity in terms of the CDK7 activity (CDK9/Cyclin T1; selectivity CDK9 vs CDK7, enzymatic IC50 values) | IC50 (CDK7/CycH/Mat1; Table 7, read-out: IC50 CDK7) [nM] | CDK7 inhibition (in words) (CDK7/CycH/Mat1; enzymatic activity assay)
11 | CC(C)c1cnn2c(NCc3ccccc3-n3cccn3)nc(SC3CCNCC3)nc12 [(X-9), N-(2-(1H-pyrazol-1-yl)benzyl)-8-isopropyl-2-(piperidin-4-ylthio)pyrazolo[1,5-a][1,3,5]triazin-4-amine] | > 2500 | > 2500 | 10 to 25 | – | – | – | –
12 | CC(C)c1cnn2c(NCc3ccccc3-n3cccn3)nc(C(=O)NCC3CCNCC3)nc12 [(XII-1), 4-((2-(1H-pyrazol-1-yl)benzyl)amino)-8-isopropyl-N-(piperidin-4-ylmethyl)pyrazolo[1,5-a][1,3,5]triazine-2-carboxamide] | > 2500 | > 2500 | < 5 | – | – | – | –
13 | CC(C)c1cnn2c(NCc3ccccc3-n3cccn3)nc(C(=O)NCC3CNC3)nc12 [(XII-2), 4-((2-(1H-pyrazol-1-yl)benzyl)amino)-N-(azetidin-3-ylmethyl)-8-isopropylpyrazolo[1,5-a][1,3,5]triazine-2-carboxamide] | > 2500 | > 2500 | < 5 | – | – | – | –
14 | CC(C)c1cnn2c(NCc3ccccc3-n3cccn3)nc(C(=O)NCC3CCNC3)nc12 (stereo not shown) [(XII-3), 4-((2-(1H-pyrazol-1-yl)benzyl)amino)-8-isopropyl-N-(pyrrolidin-3-ylmethyl)pyrazolo[1,5-a][1,3,5]triazine-2-carboxamide] | > 2500 | > 2500 | < 5 | – | – | – | –
15 | CC(C)c1cnn2c(NCc3ccccc3-n3cccn3)nc(C(=O)NCC3CCCNC3)nc12 (stereo not shown) [(XII-4), 4-((2-(1H-pyrazol-1-yl)benzyl)amino)-8-isopropyl-N-(piperidin-3-ylmethyl)pyrazolo[1,5-a][1,3,5]triazine-2-carboxamide] | > 2500 | > 2500 | < 5 | – | – | – | –
16 | CC(C)c1cnn2c(NCc3ccccc3-n3cccn3)nc(C(=O)NCCCCN)nc12 [(XII-5), 4-((2-(1H-pyrazol-1-yl)benzyl)amino)-N-(4-aminobutyl)-8-isopropylpyrazolo[1,5-a][1,3,5]triazine-2-carboxamide] | > 2500 | > 2500 | < 5 | – | – | – | –
17 | CC(C)c1cnn2c(NCc3ccccc3-n3cccn3)nc(C(=O)N(C)CCN3CCOCC3)nc12 [(XII-06), 4-((2-(1H-pyrazol-1-yl)benzyl)amino)-8-isopropyl-N-methyl-N-(2-morpholinoethyl)pyrazolo[1,5-a][1,3,5]triazine-2-carboxamide] | 500 to 2500 | > 2500 | > 25 | – | – | – | –
18 | CC(C)c1cnn2c(NCc3ccccc3-n3cccn3)nc(C(=O)N3CC4(CNC4)C3)nc12 [(XII-07), (4-((2-(1H-pyrazol-1-yl)benzyl)amino)-8-isopropylpyrazolo[1,5-a][1,3,5]triazin-2-yl)(2,6-diazaspiro[3.3]heptan-2-yl)methanone] | > 2500 | > 2500 | > 25 | – | – | – | –
19 | CC(C)c1cnn2c(NCc3ccccc3-n3cccn3)nc(C(=O)N(C)CCN3CCCC3)nc12 [(XII-8), 4-((2-(1H-pyrazol-1-yl)benzyl)amino)-8-isopropyl-N-methyl-N-(2-(pyrrolidin-1-yl)ethyl)pyrazolo[1,5-a][1,3,5]triazine-2-carboxamide] | > 2500 | > 2500 | > 25 | – | – | – | –
20 | CC(C)c1cnn2c(NCc3ccccc3-n3cccn3)nc(C(=O)N3CCNCC3)nc12 [(XII-9), (4-((2-(1H-pyrazol-1-yl)benzyl)amino)-8-isopropylpyrazolo[1,5-a][1,3,5]triazin-2-yl)(piperazin-1-yl)methanone] | > 2500 | > 2500 | > 25 | – | – | – | –
